Experimental data reported in ChEMBL document CHEMBL1201862, “PubChem BioAssay data set” (2004).
The source made the active and inactive calls.

Legend:
Caspase-3 = biological target: T1, Caspase-3 (Homo sapiens, UniProt P42574); assay: SAR Analysis of small molecule inhibitors of Sentrin-specific proteases (SENPs) using a Caspase-3 Selectivity assay. [Related pubchem assays (depositor defined):AID2540, AID2599, AID434973, AID489001]; assay type: functional
T1 sequence (P42574 whole entry): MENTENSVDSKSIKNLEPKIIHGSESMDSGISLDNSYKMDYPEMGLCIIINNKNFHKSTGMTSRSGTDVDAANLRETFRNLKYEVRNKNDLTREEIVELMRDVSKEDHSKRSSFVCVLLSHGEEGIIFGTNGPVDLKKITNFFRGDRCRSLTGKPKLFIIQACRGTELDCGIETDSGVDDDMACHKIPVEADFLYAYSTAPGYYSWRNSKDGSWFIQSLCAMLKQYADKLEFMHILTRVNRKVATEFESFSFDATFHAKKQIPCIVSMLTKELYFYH

[1] = biological target: T2, Sentrin-specific protease 7 (Homo sapiens, UniProt Q9BQF6); assay: inhibition of human SENP7 cleavage activity – biochemical, luminescence, SAR follow-up (AID 504497); assay type: functional
T2 sequence (Q9BQF6 whole entry): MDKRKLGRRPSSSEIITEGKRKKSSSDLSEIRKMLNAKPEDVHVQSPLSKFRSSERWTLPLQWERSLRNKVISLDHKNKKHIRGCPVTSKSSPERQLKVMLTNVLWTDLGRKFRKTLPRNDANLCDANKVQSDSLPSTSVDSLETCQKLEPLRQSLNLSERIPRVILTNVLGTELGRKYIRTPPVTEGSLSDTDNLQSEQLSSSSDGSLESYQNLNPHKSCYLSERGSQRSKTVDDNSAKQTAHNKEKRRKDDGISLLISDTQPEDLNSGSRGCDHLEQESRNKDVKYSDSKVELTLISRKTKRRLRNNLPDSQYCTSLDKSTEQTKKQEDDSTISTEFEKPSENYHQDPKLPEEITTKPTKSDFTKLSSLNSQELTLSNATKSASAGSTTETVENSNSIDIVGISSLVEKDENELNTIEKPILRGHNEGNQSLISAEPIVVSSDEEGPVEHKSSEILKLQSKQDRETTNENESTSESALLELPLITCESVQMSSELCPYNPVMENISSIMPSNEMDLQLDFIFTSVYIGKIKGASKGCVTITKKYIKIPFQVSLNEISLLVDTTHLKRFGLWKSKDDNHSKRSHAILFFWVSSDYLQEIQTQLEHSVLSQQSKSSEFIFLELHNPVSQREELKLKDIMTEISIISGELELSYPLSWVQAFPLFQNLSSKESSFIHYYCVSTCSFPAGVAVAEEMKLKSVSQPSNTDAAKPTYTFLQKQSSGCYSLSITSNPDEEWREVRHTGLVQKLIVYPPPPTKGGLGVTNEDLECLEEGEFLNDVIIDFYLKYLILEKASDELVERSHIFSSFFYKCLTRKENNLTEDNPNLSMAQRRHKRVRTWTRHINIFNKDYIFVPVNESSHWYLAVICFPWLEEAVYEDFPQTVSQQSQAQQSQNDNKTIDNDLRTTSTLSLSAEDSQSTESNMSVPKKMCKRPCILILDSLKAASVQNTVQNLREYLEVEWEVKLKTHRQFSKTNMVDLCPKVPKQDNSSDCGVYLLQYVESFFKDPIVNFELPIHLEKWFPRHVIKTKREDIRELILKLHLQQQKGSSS

[2] = biological target: T3, Sentrin-specific protease 6 (Homo sapiens, UniProt Q9GZR1); assay: SAR Analysis of small molecule inhibitors of Sentrin-specific protease 6 (SENP6) using a Luminescent assay. [Related pubchem assays (depositor defined):AID2582, AID2599]; assay type: functional
T3 sequence (Q9GZR1 whole entry): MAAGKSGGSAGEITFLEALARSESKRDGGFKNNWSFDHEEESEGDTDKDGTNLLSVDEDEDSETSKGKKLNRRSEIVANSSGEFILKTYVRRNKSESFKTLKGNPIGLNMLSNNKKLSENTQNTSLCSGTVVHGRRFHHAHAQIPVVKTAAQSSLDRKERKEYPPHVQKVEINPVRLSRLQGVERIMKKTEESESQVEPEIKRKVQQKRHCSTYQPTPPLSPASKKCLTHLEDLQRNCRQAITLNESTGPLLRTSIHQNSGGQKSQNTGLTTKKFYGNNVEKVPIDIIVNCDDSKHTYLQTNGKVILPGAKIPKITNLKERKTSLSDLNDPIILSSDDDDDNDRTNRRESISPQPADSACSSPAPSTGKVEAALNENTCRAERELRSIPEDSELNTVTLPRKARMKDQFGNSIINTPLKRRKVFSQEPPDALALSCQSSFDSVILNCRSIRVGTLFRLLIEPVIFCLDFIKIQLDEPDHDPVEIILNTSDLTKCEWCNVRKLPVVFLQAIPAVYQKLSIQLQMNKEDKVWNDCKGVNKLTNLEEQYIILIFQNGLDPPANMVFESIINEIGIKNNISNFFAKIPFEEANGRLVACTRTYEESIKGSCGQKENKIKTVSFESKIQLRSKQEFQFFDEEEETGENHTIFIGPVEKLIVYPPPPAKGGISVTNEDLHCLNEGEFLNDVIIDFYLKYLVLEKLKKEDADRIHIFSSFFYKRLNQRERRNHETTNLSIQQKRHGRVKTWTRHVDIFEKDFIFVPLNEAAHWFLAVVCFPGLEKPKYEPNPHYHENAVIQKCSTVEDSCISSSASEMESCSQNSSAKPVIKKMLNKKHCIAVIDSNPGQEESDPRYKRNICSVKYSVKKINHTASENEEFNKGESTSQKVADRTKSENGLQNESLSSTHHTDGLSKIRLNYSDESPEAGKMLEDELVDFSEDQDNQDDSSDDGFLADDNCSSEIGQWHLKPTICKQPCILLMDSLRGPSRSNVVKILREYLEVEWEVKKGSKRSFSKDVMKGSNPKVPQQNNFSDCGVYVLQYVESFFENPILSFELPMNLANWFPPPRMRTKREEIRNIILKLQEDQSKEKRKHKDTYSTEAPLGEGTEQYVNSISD

[3] = biological target: T4, Sentrin-specific protease 8 (Homo sapiens, UniProt Q96LD8); assay: inhibition of human SENP8 cleavage activity – biochemical, luminescence, SAR follow-up (AID 504501); assay type: functional
T4 sequence (Q96LD8 whole entry): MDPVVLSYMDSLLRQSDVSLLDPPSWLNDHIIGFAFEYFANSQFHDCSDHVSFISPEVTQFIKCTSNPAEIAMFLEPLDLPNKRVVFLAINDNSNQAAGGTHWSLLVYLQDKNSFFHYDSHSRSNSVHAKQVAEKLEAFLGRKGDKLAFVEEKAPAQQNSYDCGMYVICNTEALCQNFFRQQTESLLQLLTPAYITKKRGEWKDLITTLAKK

BJ [4] = assay: BJ-TERT-LT-ST fibroblast viability loss – cell-based, RAS-independent, luminescence, dose response (AID 1935); assay type: functional; details: Homo sapiens;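 also: BJ fibroblasts immortalized with TERT plus LT and ST oncogenes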
[5] = DRD fibroblast viability loss – cell-based, non-viral oncogenic, luminescence, dose response (AID 1934); assay type: functional; details: Homo sapiens
BJ [6] = assay: BJ-TERT fibroblast viability loss – cell-based, RAS-independent, luminescence, dose response (AID 1933); assay type: functional; details: Homo sapiens
BJ [7] = assay: growth inhibition of engineered Ras-driven BJ cells – cell-based, alamar blue fluorescence, cherrypicked samples, dose response (AID 2631); assay type: functional; details: Homo sapiens;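 also: confirmatory dose-response assay in RAS-dependent BJ fibroblasts engineered with TERT, LT and ST, with cytotoxicity read by fluorescence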
BJ [8] = assay: cells; assay type: functional, cell-based; details: Homo sapiens
[9] = biological target: T5, Endoribonuclease toxin MazF (Escherichia coli K-12, UniProt P0AE70); assay: substrate-only fluorescence increase artefacts – biochemical, single-stranded RNase substrate, counter-screen for MazEF activator project, dose response (AID 588502); assay type: functional
T5 sequence (P0AE70 whole entry): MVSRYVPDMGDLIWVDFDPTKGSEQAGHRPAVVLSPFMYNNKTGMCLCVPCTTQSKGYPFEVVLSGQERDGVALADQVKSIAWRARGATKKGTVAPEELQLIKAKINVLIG

[10] = biological target: T6, RNA-binding protein pos-1 (Caenorhabditis elegans, UniProt G5EF15); assay: disruptors of C. elegans POS-1 RNA interaction – biochemical, fluorescence polarization, dose response (AID 1964);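 also: purified POS-1 fused to maltose binding protein made in E. coli; potency of compounds blocking POS-1 binding to fluorescent RNA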
T6 sequence (G5EF15 whole entry): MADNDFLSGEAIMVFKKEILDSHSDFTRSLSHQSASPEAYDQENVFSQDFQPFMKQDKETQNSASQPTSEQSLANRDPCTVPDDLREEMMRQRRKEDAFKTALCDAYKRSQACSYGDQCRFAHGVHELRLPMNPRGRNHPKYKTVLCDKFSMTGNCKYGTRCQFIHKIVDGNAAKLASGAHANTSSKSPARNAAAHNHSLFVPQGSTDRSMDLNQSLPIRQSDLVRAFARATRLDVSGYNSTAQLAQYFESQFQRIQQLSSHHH

[11] = biological target: T5, Endoribonuclease toxin MazF; assay: activation of MazEF endoribonuclease cleavage – biochemical, fluorescence, single-stranded RNA substrate, uHTS hits, dose response (AID 588481); assay type: functional
[12] = biological target: T7, Zinc finger protein mex-5 (Caenorhabditis elegans, UniProt Q9XUB2); assay: potency of MEX-5 RNA-binding blockers – biochemical, C. elegans, fluorescence polarization, dose response (AID 1960)
T7 sequence (Q9XUB2 whole entry): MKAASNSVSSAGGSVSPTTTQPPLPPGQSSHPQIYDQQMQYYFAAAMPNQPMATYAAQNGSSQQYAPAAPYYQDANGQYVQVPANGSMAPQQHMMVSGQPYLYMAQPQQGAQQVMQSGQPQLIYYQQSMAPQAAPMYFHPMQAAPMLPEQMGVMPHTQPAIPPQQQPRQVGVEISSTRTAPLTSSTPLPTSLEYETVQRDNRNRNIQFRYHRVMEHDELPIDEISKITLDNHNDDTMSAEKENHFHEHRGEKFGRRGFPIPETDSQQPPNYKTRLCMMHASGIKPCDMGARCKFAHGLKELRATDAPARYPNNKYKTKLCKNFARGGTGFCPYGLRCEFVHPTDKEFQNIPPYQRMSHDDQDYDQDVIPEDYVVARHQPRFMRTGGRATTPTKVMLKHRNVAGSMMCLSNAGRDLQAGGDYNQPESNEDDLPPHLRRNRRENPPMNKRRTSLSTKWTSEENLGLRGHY

| Structure (SMILES) | IC50 (Caspase-3) | IC50 [1] | IC50 [2] | IC50 [3] | other results |
| --- | --- | --- | --- | --- | --- |
| Cc1cccc(N/N=C/c2c[nH]c3ccccc23)c1 | > 99 µM (inactive) | 18 µM (active) | 32 µM (active) | 34.5 µM (active) |  |
| CSc1cc(-c2ccccc2)n(Cc2ccccc2Cl)c(=O)c1C#N |  |  |  |  | EC50 (BJ [4]): 33.6 µM (inconclusive); EC50 [5]: 3.67 µM (active); EC50 (BJ [6]): 10.1 µM (inconclusive); EC50 (BJ [7]): 1.92 µM (active); EC50 (BJ [8]): 43.8 µM (active) |
| O=[N+]([O-])c1ccccc1CNCCc1c[nH]c2ccccc12 | > 99 µM (inactive) | > 99 µM (inactive) | > 99 µM (inactive) | > 99 µM (inactive) |  |
| CN(C)c1nc(NCc2ccccc2)nc(N/N=C/c2ccc(Br)cc2)n1 | > 99 µM (inactive) | > 99 µM (inactive) | > 99 µM (inactive) | > 99 µM (inactive) |  |
| CCCCOc1cccc(C2C(C(=O)c3ccc(C)o3)=C(O)C(=O)N2c2nnc(C)s2)c1 (stereo unspecified) |  |  |  |  | EC50 [9]: 20.4 µM (inactive); EC50 [10]: 102 µM (active); EC50 [11]: > 99 µM (inactive); EC50 [12]: 77.4 µM (active) |
